Measured values taken from US10266857B2, “Method for producing Nε-acyl-L-lysine” (AJINOMOTO CO., INC., priority 2015, dated 2019).
Values belong to the molecule of their own block, whether it stands above or below them.

Experiments:
[1] = test system: RmELA; test: Acyl lysine hydrolysis (substrate specificity of purified RmELA); type: biochemical, Rhodothermus marinus; conditions: for hydrolysis (degradation) activity of the enzyme for the acyl lysine, in words: 4 mM substrate, pH 7.0, 37° C.; for Hydrolysis activity: acyl lysine 4 mM, 100 mM Tris-HCl (pH 7.0), 37° C., 1 U = 1 μmol lysine per 1 minute
Description: To look into the substrate specificity of the acyl lysine hydrolysis of this enzyme, the reactivity of the enzyme as described herein for various kinds of acyl lysines was examined. […] Activity measurement was performed with the various kinds of acyl lysines (4 mM) and 100 mM Tris-HCl (pH 7.0) at 37° C., and the activity was calculated by measuring the concentration of lysine produced along with the degradation of the acyl lysines. For the measurement of L-lysine, BF-5 and a lysine electrode (manufactured by Oji Scientific Instruments Co., Ltd.) was used, whereas for the measurement of D-lysine, an amino acid analyzer (manufactured by Hitachi, Ltd.) was used. Here, 1 U was defined as an enzyme amount that releases 1 μmol lysine from each of the acyl lysines (per 1 minute).

[2] = Synthesis reaction of Nε-dodecanoyl-L-lysine, L-lysine consumption; type: biochemical; conditions: 300 mmol/L substrates, 3 U/ml, after 24 hours
Description: Using the RmELA enzymatic solution prepared by the method described in Example 7, the synthesis reaction of Nε-dodecanoyl-L-lysine was carried out. A 200 ml of a reaction solution was prepared so as to give final concentrations of 300 mmol/L dodecanoic acid, 300 mmol/L L-lysine hydrochloride, 0.1 mmol/L ZnSO4, 10% methanol, and 3 U/ml the RmELA enzymatic solution and was stirred at 300 rpm using a 500 ml jar fermenter. The pH was adjusted to be 7.0 using 1 N of NaOH, and the reaction temperature was adjusted to be 55° C.
Nα-dodecanoyl-L-lysine was produced by only 0.06% in terms of yield relative to L-lysine.
For the measurement of lysine, BF-5 and a lysine electrode (manufactured by Oji Scientific Instruments Co., Ltd.) were used. The HPLC analysis was performed with Column YMC-UltraHT Pro C18, 50×2.0 mm I.D. (manufactured by YMC Co., Ltd.), a mobile layer of NaH2PO4 (pH 3.0)/MeOH=3/7, and UV 210 nm.
When the reaction pH was changed from pH 7.0 to pH 6.0, and the synthesis reaction of Nε-dodecanoyl-L-lysine was carried out by a method similar to the above, 96% of the charged L-lysine was consumed after 24 hours (FIG. 7). […] At pH 7.0, dodecanoic acid in the reaction solution was emulsified to give a high viscosity solution. […]

[3] = Synthesis reaction of Nε-octanoyl-L-lysine by RmELA enzymatic solution, L-lysine consumption; type: biochemical
Description: Using the RmELA enzymatic solution prepared by the method described in Example 7, the synthesis reaction of Nε-octanoyl-L-lysine was carried out. A 100 ml of a reaction solution was prepared so as to give final concentrations of 300 mmol/L octanoic acid, 300 mmol/L L-lysine hydrochloride, 0.1 mmol/L ZnSO4, and 2.1 U/ml the RmELA enzymatic solution and was stirred at 300 rpm using a 200 ml jar fermenter. The pH was adjusted to be 7.0 using 1 N of NaOH, and the reaction temperature was adjusted to be 50° C.
During the reaction, the reaction solution was sampled over time, and an L-lysine concentration within the reaction solution was measured. […] When the reaction solution after 23 hours was analyzed by HPLC, Nε-octanoyl-L-lysine was produced by 80% in terms of yield relative to L-lysine. […] No peak of Nα-octanoyl-L-lysine was detected.
The substrate (octanoic acid and L-lysine hydrochloride) final concentration in the reaction condition was changed to (1) 500 mmol/L, (2) 750 mmol/L, and (3) 1,000 mmol/L to carry out the synthesis reaction of Nε-octanoyl-L-lysine.
During the reaction, the reaction solution was sampled over time, and an L-lysine concentration in the reaction solution was measured. […] Respective consumption rates relative to the charged L-lysine and reaction times were (1) 87% after 35 hours, (2) 92% after 35 hours, and (3) 94% after 57 hours.

[4] = Enzyme activity after heat sterilization of the culture solution; type: biochemical; conditions: 75° C. for 30 minutes
Description: Whether a C. glutamicum expression strain of RmELA could be sterilized with heat while maintaining the enzyme activity was examined. The culture solution acquired by the method described in Example 1, 1-6) in an amount of 150 μl was dispensed to a PCR tube and was subjected to heat treatment at 75° C. for 30 minutes using a block heater to obtain a heat treatment culture solution. The heat treatment culture solution and the heat treatment culture solution serially diluted (with a dilution rate of ×10^2) with a physiological saline solution (0.85% of NaCl) were applied to a CM2G agar medium (10 g of a yeast extract, 10 g of polypeptone, 5 g of glucose, 5 g of sodium chloride, 0.2 g of DL-methionine, 15 g of agar, pH 7.2, and filled up to 1 L with water) containing 25 mg/l of kanamycin, and the number of formed colonies was counted to examine the number of living bacteria of the RmELA expression strain. As a result, no colony formation was detected. […] When a culture solution without the heat treatment was examined by the same method, the number of living bacteria was 7.0×10^10 cfu/ml.
Subsequently, the culture solution and the heat treatment culture solution explained above were centrifuged individually, the supernatants were collected, and the hydrolysis activity of Nε-acetyl-L-lysine within the supernatants was measured.

[5] = Storage stability of enzymatic solutions; type: biochemical; conditions: stored at 4° C., 15° C. and 25° C.
Description: A culture solution of the C. glutamicum expression strain of RmELA acquired by the method described in Example 1, 1-6) was centrifuged to collect the supernatant, which was membrane-sterilized with a 0.45 μm filter to obtain an RmELA enzymatic solution. A WDK010/pPKT-tatABC strain (WO 2010/067871) as a C. glutamicum expression strain of ELA native to Streptomyces mobarensis (SmELA) was cultured and sterilized by a similar procedure to obtain an SmELA enzymatic solution.
These enzymatic solutions were stored at temperatures of 4° C., 15° C., and 25° C., and the transition of enzyme activity was examined. The activity was represented as relative activity (%) with the activity value when the storage started as 100.

[6] = Optimum pH of the enzyme; type: biochemical; conditions: 37° C., acetate, Tris-HCl and borate buffers, pH 4.2 to 9.8
Description: Using the purified enzyme acquired by the method described in Example 3, the optimum pH and pH stability of the enzyme with Nε-acetyl-L-lysine as a substrate were examined.
Using various kinds of buffers (pH 4.2 to 6.0: acetate buffers, pH 7.2 to 8.8: Tris-HCl buffers, and pH 9.3 to 9.8: borate buffers) at 37° C., activity at various pH was measured. The activity was represented as relative activity (%) with the maximum activity value as 100. The optimum pH of this enzyme was pH 5.0.

[7] = type: biochemical; conditions: incubated at 30° C. to 100° C. for 1 hour
Description: Using the purified enzyme acquired by the method described in Example 3, the optimum reaction temperature and temperature stability of the enzyme with Nε-acetyl-L-lysine as a substrate were examined.
Subsequently, remaining activity after being incubated at certain temperatures (30° C. to 100° C.) for 1 hour was measured. The activity was represented as relative activity (%) with the activity value before the incubation as 100.

- hydrolysis (degradation) activity of the enzyme for the acyl lysine, in words [1]: did not exhibit hydrolysis activity
Molecule: CC(=O)N[C@@H](CCCCN)C(=O)O [Nα-Acetyl-L-Lys, Nα-acetyl-L-lysine]
- Hydrolysis activity [1]: 0.0 U/mg

- hydrolysis (degradation) activity of the enzyme for the acyl lysine, in words [1]: did not exhibit hydrolysis activity
Molecule: NCCCC[C@H](NC(=O)c1ccccc1)C(=O)O [Nα-Benzoyl-L-Lys, Nα-benzoyl-L-lysine]
- Hydrolysis activity [1]: 0.0 U/mg

Molecule: N[C@@H](CCCCNC(=O)[C@@H](N)CCC(=O)O)C(=O)O [Nε-(αGlu)-L-Lys]
- Hydrolysis activity [1]: 36.8 U/mg

Molecule: N[C@@H](CCCCNC(=O)CC[C@H](N)C(=O)O)C(=O)O [Nε-(γGlu)-L-Lys]
- Hydrolysis activity [1]: 41.3 U/mg

Molecule: CC(=O)NCCCC[C@@H](N)C(=O)O [Nε-Acetyl-D-Lys, Nε-acetyl-D-lysine]
- hydrolysis (degradation) activity of the enzyme for the acyl lysine, in words [1]: did not exhibit hydrolysis activity
- Hydrolysis activity [1]: 0.0 U/mg

Molecule: CC(=O)NCCCC[C@H](N)C(=O)O [Nε-Acetyl-L-Lys, Nε-acetyl-L-lysine]
- hydrolysis (degradation) activity of the enzyme for the acyl lysine, in words [1]: exhibited degradation activity
- Hydrolysis activity [1]: 17.5 U/mg

- hydrolysis (degradation) activity of the enzyme for the acyl lysine, in words [1]: exhibited degradation activity
Molecule: N[C@@H](CCCCNC(=O)c1ccccc1)C(=O)O [Nε-Benzoyl-L-Lys, Nε-benzoyl-L-lysine]
- Hydrolysis activity [1]: 90.1 U/mg

B1: RmELA: amidohydrolase native to Rhodothermus marinus (NCBI; WP_012844854.1, SEQ ID NO: 1), Nε-acyl-L-lysine-specific aminoacylase (protein, listed as Rhodothermus marinus)
chain: MLLLPMQARGQADYVLVNGRLYTVDPAQPVAEAMAVRGDRILMVGTTAQLTAAYPDAPHIDLQGRAVVPGFIDAHAHLMGLGLSRLRADLTGTRSVEEILERLREFARQLPEGAWLLGRGWDQNDWPVKEFPTRQMLDEIFPERPVWLVRIDGHAAWANTAAIRRANPALLTEQIPDPEGGHIVRDAEGRLTGVFIDEAMDLIARHIPPPSEAELEEALRRAVAEANRFGLTGVHDAGASLKTIQGYRRAVDDGTLTLRLYVMVDGLGEAFDYFCEHGPLLDYGGRLTVRSVKFYIDGALGSRGAALLADYSDDPGNRGLLRHEPEVFADMVQRAMKCGFQVNTHAIGDRGVRVVLDAYEKALRTLGRTVGRHRVEHAQVVAPEDFARFAELDLIASMQPTHATSDMYWAEDRLGPERVRGAYAWRTFLEHGVRLAFGSDFPVELANPLLGFYAAITRQDAEGWPEGGWYPEQRLTREEALRAFTLDAAYAAFQEHELGSLTPGKYADFVVLSHDIMTVPPEQILQTRVLATFFGGRCVYHDPEAAGLCPASP
- charged L-lysine consumed ([2]; pH 6.0, 55° C.): 96%
- charged L-lysine consumed ([2]; pH 7.0, 55° C.): 98%
- charged L-lysine consumed ([3]; 300 mmol/L substrates, 2.1 U/ml, pH 7.0, 50° C., after 23 hours): 80%
- consumption rate relative to the charged L-lysine ([3]; substrate 500 mmol/L, after 35 hours): 87%
- consumption rate relative to the charged L-lysine ([3]; substrate 750 mmol/L, after 35 hours): 92%
- consumption rate relative to the charged L-lysine ([3]; substrate 1,000 mmol/L, after 57 hours): 94%
- enzyme activity after heat treatment [4]: no decrease in enzyme activity
- transition of enzyme activity during storage [5]: did not decrease in enzyme activity
- optimum pH [6]: 5.0
- optimum pH ([6]; listed as protein having the amino acid sequence of SEQ ID NO: 1): about 5
- temperature up to which no decrease in activity was shown [7]: up to 80 °C
